{"source": "patent US20230119764A1", "about": "“APPLICATION OF DIMETHYL BERBAMINE COMPOUND IN INHIBITION OF SARS-COV-2” (priority 2020, published 2023)", "type_in_all_cases": "cell-based", "key": {"[1]": {"tested_on": "SARS-CoV-2 virus (nCoV-2019BetaCoV/Wuhan/WIV04/2019 isolate)", "test": "microbe, parasite or virus in culture", "conditions": "for Copy number of viral genome (MOI = 0.01): MOI 0.01, Vero E6 supernatant; for Copy number of viral genome (MOI = 0.01) / Copy number of viral genome (MOI = 0.05): 48 h, copy number per milliliter; for Copy number of viral genome (MOI = 0.05): MOI 0.05, Vero E6 supernatant; for SI (selectivity index): Example 1, drug pretreatment 1 hour; for EC50: Severe acute respiratory syndrome coronavirus 2, Vero C1008, Example 1, drug pretreatment 1 hour"}, "[2]": {"test": "Drug cytotoxicity on cells, CellTiter-Glo kit", "conditions": "African green monkey; Vero-E6 cells, 24 hours", "experimental": "(§1) 1.5.1 Vero E6 cell culture: 0.1 ml of 0.25% trypsin, 5 ml of 0.02% EDTA were added to a culture flask full of cells, the digestion was carried out at 37° C. for 5 minutes, then the digestion solution was discarded, the cell culture solution was added and then mixed by pipetting up-down. The cells were subcultured at 1:3, reached confluence within 3 days, formulated into 100,000 cells per ml, inoculated to a 96-well cell culture plate, 0.1 ml per well, and cultured at 37° C., 5% CO2 for 24 hours, and the cells grew into monolayer was used for experiment.\n(§2) 1.5.2 Experiment of Drug Cytotoxicity on Cells:\n(§3) The detection of drug cytotoxicity was determined using CellTiter-Glo kit (Promega). Specific steps were as follows:\n(§4) (1) 1×10^4 Vero-E6 cells were inoculated in a 96-well plate and cultured at 37° C. for 8 hours.\n(§5) (2) The stock solution of drug was diluted with MEM medium containing 2% FBS to the desired concentration, the original medium in the 96-well plate was discarded, and 100 μL of the drug-containing MEM medium was taken and added to the corresponding wells, so that the final concentrations of drug in the wells were those shown in Tables 1 to 3, respectively, and three replicate wells were made for each concentration. At the same time, a vehicle control (adding DMSO or PBS, and 2% FBS-containing MEM medium without drug to the cell wells) and a blank control (adding DMSO and 2% FBS-containing MEM medium to the wells without cells) were set. After the addition of drug, the cells were incubated at 37° C. for 24 hours.\n(§6) (3) 100 μL of CellTiter-Glo solution (Promega) was added to the wells to be tested, and mixed by shaking for 2 min to fully lyse the cells, incubated at room temperature for 10 minutes, and readings of chemiluminescence signals […] were obtained on a microplate reader (purchased from Molecular Devices, model: SpectraMax M5). The cell viability was calculated by taking the readings into the following formula:\n(§7) Cell viability (%)=(A(drug treatment group)−A(blank control))/(A(vehicle control)−A(blank control))×100%\n(§8) where A represented the reading on the microplate reader."}, "Vero-E6 cells": {"tested_on": "Vero-E6 cells", "test": "Drug cytotoxicity on cells, CellTiter-Glo kit", "conditions": "for Cell viability (% of vehicle control): Vero-E6, 24 hours", "experimental": "as §1, §2, §3, §4, §5, §6, §7, §8"}, "[3]": {"tested_on": "SARS-CoV-2 virus (nCoV-2019BetaCoV/Wuhan/WIV04/2019 isolate)", "test": "microbe, parasite or virus in culture", "conditions": "for SI (selectivity index): Example 2, no drug pretreatment; for EC50: Severe acute respiratory syndrome coronavirus 2, Vero C1008, Example 2, no drug pretreatment; for Inhibition of SARS-CoV-2 (in words): Example 2, drug added after virus infection of cells"}, "[4]": {"tested_on": "SARS-CoV-2 virus (nCoV-2019BetaCoV/Wuhan/WIV04/2019 isolate)", "test": "EC50 by nucleic acid quantification on Vero cells (Example 3), quantitative RT-PCR"}, "[5]": {"conditions": "MOI 0.01, Vero E6, read-out: EC50"}, "[6]": {"conditions": "MOI 0.05, Vero E6, read-out: EC50"}}, "note": "“Also recorded” adds a separate entry of the source.", "data": [{"molecule": "CCC(CC)COC(=O)[C@H](C)N[P@](=O)(OC[C@H]1O[C@@](C#N)(c2ccc3c(N)ncnn23)[C@H](O)[C@@H]1O)Oc1ccccc1", "note": "[Remdesivir]", "values": [{"measurement": "Copy number of viral genome (MOI = 0.01)", "setting": "[1]; 0.12 μM", "value": 3900176000}, {"measurement": "Copy number of viral genome (MOI = 0.05)", "setting": "[1]; 0.12 μM", "value": 11594175000}, {"measurement": "Copy number of viral genome (MOI = 0.01)", "setting": "[1]; 0.37 μM", "value": 1901120292}, {"measurement": "Copy number of viral genome (MOI = 0.05)", "setting": "[1]; 0.37 μM", "value": 9405568167}, {"measurement": "Copy number of viral genome (MOI = 0.01)", "setting": "[1]; 1.11 μM", "value": 19898611}, {"measurement": "Copy number of viral genome (MOI = 0.05)", "setting": "[1]; 1.11 μM", "value": 545157271}, {"measurement": "Copy number of viral genome (MOI = 0.01)", "setting": "[1]; 3.33 μM", "value": 243294}, {"measurement": "Copy number of viral genome (MOI = 0.05)", "setting": "[1]; 3.33 μM", "value": 13188656}, {"measurement": "Copy number of viral genome (MOI = 0.01)", "setting": "[1]; 10 μM", "value": 563645}, {"measurement": "Copy number of viral genome (MOI = 0.05)", "setting": "[1]; 10 μM", "value": 3230111}, {"measurement": "Copy number of viral genome (MOI = 0.01)", "setting": "[1]; 30 μM", "value": 975616}, {"measurement": "Copy number of viral genome (MOI = 0.05)", "setting": "[1]; 30 μM", "value": 2594526}, {"measurement": "SI (selectivity index)", "setting": "[1]; MOI 0.01", "value": 534.33}, {"measurement": "SI (selectivity index)", "setting": "[1]; MOI 0.05", "value": 271.69}, {"measurement": "EC50", "setting": "[1]; MOI 0.01, Vero E6", "value": 300, "unit": "nM"}, {"measurement": "EC50", "setting": "[1]; MOI 0.05, Vero E6", "value": 590, "unit": "nM"}, {"measurement": "CC50 at 24 h", "setting": "[2]", "value": 160, "unit": "µM"}, {"measurement": "Cell viability (% of vehicle control)", "setting": "Vero-E6 cells; 3.13 μM", "value": "97.16 % of vehicle control"}, {"measurement": "Cell viability (% of vehicle control)", "setting": "Vero-E6 cells; 6.25 μM", "value": "99.17 % of vehicle control"}, {"measurement": "Cell viability (% of vehicle control)", "setting": "Vero-E6 cells; 12.5 μM", "value": "99.62 % of vehicle control"}, {"measurement": "Cell viability (% of vehicle control)", "setting": "Vero-E6 cells; 25 μM", "value": "95.71 % of vehicle control"}, {"measurement": "Cell viability (% of vehicle control)", "setting": "Vero-E6 cells; 50 μM", "value": "90.20 % of vehicle control"}, {"measurement": "Cell viability (% of vehicle control)", "setting": "Vero-E6 cells; 100 μM", "value": "70.09 % of vehicle control"}, {"measurement": "Cell viability (% of vehicle control)", "setting": "Vero-E6 cells; 200 μM", "value": "40.05 % of vehicle control"}, {"measurement": "SI (selectivity index)", "setting": "[3]; MOI 0.01", "value": 696.96}, {"measurement": "SI (selectivity index)", "setting": "[3]; MOI 0.05", "value": 258.55}, {"measurement": "EC50", "setting": "[3]; MOI 0.01, Vero E6", "value": 230, "unit": "nM"}, {"measurement": "EC50", "setting": "[3]; MOI 0.05, Vero E6", "value": 620, "unit": "nM"}]}, {"molecule": "COc1ccc2cc1Oc1ccc(cc1)C[C@H]1c3cc(c(OC)cc3CCN1C)Oc1c(OC)c(OC)cc3c1[C@H](C2)N(C)CC3", "note": "[Tetrandrine, 6,6′,7,12-tetramethoxy-2,2′-dimethylberbamine]", "values": [{"measurement": "Inhibition of SARS-CoV-2 (in words)", "setting": "[4]; Example 3, cellular level, Vero cells", "value": "inhibitory effect"}, {"measurement": "EC50", "setting": "[4]; Severe acute respiratory syndrome coronavirus 2, 48 h, Example 3, Vero cells, viral load 100 TCID50, two days after infection", "value": 8.99, "unit": "µM"}, {"measurement": "Copy number of viral genome (MOI = 0.01)", "setting": "[1]; 0.625 μM", "value": 3357508000}, {"measurement": "Copy number of viral genome (MOI = 0.05)", "setting": "[1]; 0.625 μM", "value": 10669558667}, {"measurement": "Copy number of viral genome (MOI = 0.01)", "setting": "[1]; 1.25 μM", "value": 3336005167}, {"measurement": "Copy number of viral genome (MOI = 0.05)", "setting": "[1]; 1.25 μM", "value": 7198143667}, {"measurement": "Copy number of viral genome (MOI = 0.01)", "setting": "[1]; 2.5 μM", "value": 1707286250}, {"measurement": "Copy number of viral genome (MOI = 0.05)", "setting": "[1]; 2.5 μM", "value": 7118504000}, {"measurement": "Copy number of viral genome (MOI = 0.01)", "setting": "[1]; 5 μM", "value": 373861479}, {"measurement": "Copy number of viral genome (MOI = 0.05)", "setting": "[1]; 5 μM", "value": 2477488500}, {"measurement": "Copy number of viral genome (MOI = 0.01)", "setting": "[1]; 10 μM", "value": 1456943}, {"measurement": "Copy number of viral genome (MOI = 0.05)", "setting": "[1]; 10 μM", "value": 8161310}, {"measurement": "Copy number of viral genome (MOI = 0.01)", "setting": "[1]; 20 μM", "value": 1323393}, {"measurement": "Copy number of viral genome (MOI = 0.05)", "setting": "[1]; 20 μM", "value": 4092752}, {"measurement": "SI (selectivity index)", "setting": "[1]; MOI 0.01", "value": 14.33}, {"measurement": "SI (selectivity index)", "setting": "[1]; MOI 0.05", "value": 8.51}, {"measurement": "Inhibition of SARS-CoV-2 (in words)", "setting": "[1]; Example 1, in vitro, Vero E6", "value": "obvious inhibitory effects; also recorded: inhibitory activity"}, {"measurement": "EC50", "setting": "[1]; [5]", "value": 1710, "unit": "nM"}, {"measurement": "EC50", "setting": "[1]; [6]", "value": 2880, "unit": "nM"}, {"measurement": "CC50 at 24 h", "setting": "[2]", "value": 24.5, "unit": "µM"}, {"measurement": "Cell viability (% of vehicle control)", "setting": "Vero-E6 cells; 1.56 μM", "value": "94.81 % of vehicle control"}, {"measurement": "Cell viability (% of vehicle control)", "setting": "Vero-E6 cells; 3.13 μM", "value": "97.38 % of vehicle control"}, {"measurement": "Cell viability (% of vehicle control)", "setting": "Vero-E6 cells; 6.25 μM", "value": "91.24 % of vehicle control"}, {"measurement": "Cell viability (% of vehicle control)", "setting": "Vero-E6 cells; 12.5 μM", "value": "78.14 % of vehicle control"}, {"measurement": "Cell viability (% of vehicle control)", "setting": "Vero-E6 cells; 25 μM", "value": "58.25 % of vehicle control"}, {"measurement": "Cell viability (% of vehicle control)", "setting": "Vero-E6 cells; 50 μM", "value": "0.28 % of vehicle control"}, {"measurement": "Cell viability (% of vehicle control)", "setting": "Vero-E6 cells; 100 μM", "value": "0.96 % of vehicle control"}, {"measurement": "Toxicity on Vero E6 cells (in words)", "setting": "Vero-E6 cells; all tested concentrations", "value": "good safety for the test cells in vitro"}, {"measurement": "Inhibition of SARS-CoV-2 (in words)", "setting": "[3]", "value": "inhibitory activity"}, {"measurement": "Inhibition of SARS-CoV-2 (in words)", "setting": "[3]; listed as tetrandrine", "value": "obvious inhibitory effects"}, {"measurement": "SI (selectivity index)", "setting": "[3]; MOI 0.01", "value": 15.22}, {"measurement": "SI (selectivity index)", "setting": "[3]; MOI 0.05", "value": 12.51}, {"measurement": "EC50", "setting": "[3]; [5]", "value": 1610, "unit": "nM"}, {"measurement": "EC50", "setting": "[3]; [6]", "value": 1950, "unit": "nM"}]}]}
